In patent US9403873B2, “Peptides targeting receptor activator of nuclear factor-κB (RANK) and their applications” (UNIVERSITE DE NANTES, priority 2011, dated 2016):
Ends that are not written are not given here.

Tests used:
human CD14+ monocytes = assay type: cell-based
From the text: Human peripheral blood mononuclear cells (PBMCs) were isolated by centrifugation over Ficoll gradient (Sigma, Saint Quentin Fallavier, France). CD14^+ cells were magnetically labeled with CD14 Microbeads and positively selected by MACS technology (Miltenyi Biotec, Paris, France) as described previously (Duplomb et al. 2008). CD11b^+ monocytes were purified from murine bone marrow cells obtained by flushing the bone marrow from femora and tibiae of 4-week-old C57BL6 male mice, using MACS microbeads (Baud'huin et al. 2010). The purity of cell preparations was around 96%, as controlled by flow cytometry. Generation of osteoclasts from human CD14^+ and murine CD11b^+ monocytes was performed as described previously (Duplomb et al. 2008, Baud′huin et al. 2010). Briefly, purified cells were cultured in α-minimum essential medium (α-MEM, Gibco/Invitrogen, USA) with 10% fetal calf serum and 25 ng/mL human/murine macrophage colony-stimulating factor (M-CSF, R&D Systems, Abindgton, UK). After 3 days of culture, cell medium was replaced by fresh medium containing M-CSF and recombinant human RANKL (100 ng/mL, R&D system), supplemented with or without a polypeptide of interest (0.5-100 μM) or 50 ng/mL human OPG (R&D Systems) used as a reference inhibitor. Soluble cytokines, receptor and polypeptides were renewed every 3 days until multinucleated osteoclasts had formed. After 12 days of culture for CD14^+ cells and 15 days for CD11b^+ cells, osteoclasts were visualized by TRAP staining (Sigma, France) and cells formed with three or more nuclei were manually counted and analyzed statistically.

monocytes = assay: Cytotoxicity on monocytes; assay type: cell-based; conditions: 100 μM
hRANK = biological target: T1, hRANK (Homo sapiens, UniProt Q9Y6Q6); assay: Saturation transfer difference (STD) NMR of Pep8 binding to RANK; conditions: Pep8:RANK-Fc 100:1 to 1000:1, phosphate buffer
T1 construct: For NMR experiments with soluble RANK receptor-Fc (R&D Systems); purchased R&D Systems
T1 sequence (Q9Y6Q6 30-212 limits assumed): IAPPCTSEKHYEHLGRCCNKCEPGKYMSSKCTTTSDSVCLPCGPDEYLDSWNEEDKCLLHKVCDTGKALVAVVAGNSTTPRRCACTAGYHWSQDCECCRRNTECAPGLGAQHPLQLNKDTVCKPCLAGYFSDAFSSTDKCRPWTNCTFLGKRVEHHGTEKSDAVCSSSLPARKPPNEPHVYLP
Protocol: NMR experiments were run at 500.13 MHz for ^1H on a Bruker AVANCE 500 spectrometer with a Linux PC workstation, using standard 5 mm or Shigemi 3 mm tubes with susceptibility matched to solvent ^2H2O/Water sample tubes. The spectra of the polypeptide Pep8 at 0.1, 0.2, 0.4 or 1 mM sample concentrations were recorded in 50 mM sodium phosphate buffer at pH 7.4, prepared in 95% H2O and 5% ^2H2O. Two-dimensional NMR spectra were recorded in the phase-sensitive mode using the States—TPPI method (States et al. 1982). […] The two-dimensional COSY, TOCSY and NOESY spectra were recorded at 280 K. TOCSY spectra were recorded using a MLEV-17 spin-lock sequence (Bax et al. 1985) with a mixing time (τm) of 35 and 70 ms, respectively. 2D NOESY experiments were recorded at a mixing time (τm) of 100, 200 or 500 ms. The heteronuclear spectra ^1H-^13C HSQC were recorded at 280 K in the same conditions. […] Transferred nuclear Overhauser effect (TRNOESY) spectra of Pep8 with RANK receptor-Fc protein were recorded using a mixing time (Tm) of 100, 200 or 500 ms.
^1D ^1H STD NMR spectra of the polypeptide—protein mixtures were recorded at 500 MHz with 4K scans and selective saturation of protein resonances as described previously (Pons et al. 2011). […]

NVLKLCSGE [Pep8, NVLKLCSGE]
IC50 (human CD14+ monocytes): 40 µM
inhibitory activity on osteoclastogenesis (human CD14+ monocytes; 50 μM polypeptide, screen of 8 new polypeptides): inhibitory activity similar to that of the RANKL-targeting mimetics OP3-4 and WP9QY
number of TRAP-positive multinucleated cells, % of the number formed without the polypeptide (human CD14+ monocytes; 100 μM, human cultures): 39%
osteoclast development with polypeptide alone (human CD14+ monocytes; absence of RANKL): did not modulate osteoclast development
cytotoxic effect (monocytes): no cytotoxic effect
STD relative transfer ratio of residues C6S7 (hRANK): 60%
STD saturation received by residues L3K4L5 (hRANK): 100%
